Data reported in the NIST ThermoML archive (doi:10.1021/acs.jced.8b00229).

Details: Liquid, Vibrating tube method

C=CCCCC [hex-1-ene]
Details | mass density [kg/m3]
323.19 K, 55000 kPa | 699.3
323.2 K, 15000 kPa | 663.4
323.2 K, 20000 kPa | 668.8
323.2 K, 30000 kPa | 678.6
323.2 K, 35000 kPa | 683.4
323.2 K, 40000 kPa | 687.3
323.2 K, 70000 kPa | 709.4
323.2 K, 80000 kPa | 715.7
323.2 K, 90000 kPa | 721.6
323.2 K, 100000 kPa | 727.2
323.21 K, 25000 kPa | 673.8
323.21 K, 45000 kPa | 691.8
333.08 K, 500 kPa | 635.3
333.08 K, 1000 kPa | 636
333.08 K, 3000 kPa | 639.1
333.08 K, 5000 kPa | 642
333.08 K, 10000 kPa | 648.8
333.09 K, 15000 kPa | 655
333.09 K, 20000 kPa | 660.8
333.09 K, 25000 kPa | 666.1
333.09 K, 30000 kPa | 671.1
333.09 K, 35000 kPa | 676.4
333.09 K, 40000 kPa | 680.2
333.09 K, 45000 kPa | 685.1
333.09 K, 50000 kPa | 688.5
333.09 K, 55000 kPa | 693
333.09 K, 60000 kPa | 696.1
333.09 K, 70000 kPa | 703.3
333.09 K, 80000 kPa | 709.8
333.09 K, 90000 kPa | 715.9
333.09 K, 100000 kPa | 721.7
342.96 K, 500 kPa | 625.6
342.96 K, 1000 kPa | 626.4
342.97 K, 3000 kPa | 629.8
342.97 K, 5000 kPa | 633
342.97 K, 10000 kPa | 640.3
342.97 K, 15000 kPa | 647
342.97 K, 20000 kPa | 653.2
342.97 K, 25000 kPa | 658.8
342.97 K, 30000 kPa | 664.1
342.97 K, 35000 kPa | 669.6
342.97 K, 40000 kPa | 673.8
342.97 K, 45000 kPa | 678.8
342.97 K, 50000 kPa | 682.3
342.97 K, 55000 kPa | 687
342.97 K, 60000 kPa | 690.4
342.97 K, 70000 kPa | 697.6
342.97 K, 80000 kPa | 704.3
342.97 K, 90000 kPa | 710.7
342.97 K, 100000 kPa | 716.6
352.85 K, 500 kPa | 615.7
352.85 K, 1000 kPa | 617
352.85 K, 3000 kPa | 620.7
352.85 K, 5000 kPa | 624.2
352.85 K, 15000 kPa | 639.4
352.86 K, 10000 kPa | 632.2
352.86 K, 20000 kPa | 645.7
352.86 K, 25000 kPa | 651.7
352.86 K, 30000 kPa | 657.4
352.86 K, 35000 kPa | 662.8
352.86 K, 40000 kPa | 667.4
352.86 K, 45000 kPa | 672.4
352.86 K, 50000 kPa | 676.6
352.86 K, 55000 kPa | 680.9
352.86 K, 60000 kPa | 684.8
352.86 K, 70000 kPa | 692.4
352.86 K, 80000 kPa | 699.4
352.86 K, 90000 kPa | 705.9
352.86 K, 100000 kPa | 712
362.7 K, 500 kPa | 604.1
362.7 K, 1000 kPa | 605.5
362.7 K, 100000 kPa | 705.7
362.71 K, 3000 kPa | 609.5
362.71 K, 5000 kPa | 613.3
362.71 K, 10000 kPa | 622
362.71 K, 15000 kPa | 629.7
362.71 K, 20000 kPa | 636.7
362.71 K, 25000 kPa | 643
362.71 K, 30000 kPa | 648.9
362.71 K, 35000 kPa | 654.7
362.71 K, 40000 kPa | 659.6
362.71 K, 45000 kPa | 664.8
362.71 K, 50000 kPa | 669
362.71 K, 55000 kPa | 673.7
362.71 K, 60000 kPa | 677.6
362.71 K, 70000 kPa | 685.4
362.71 K, 80000 kPa | 692.6
362.71 K, 90000 kPa | 699.3
